Key:
[1] = system: WT, Alpha, Beta, Delta, and Omicron BA.1 spike proteins; format: binding, SARS-CoV-2
[2] = system: full-length trimeric Alpha, Beta, and Delta spikes; format: binding, SARS-CoV-2

Substance | binding affinities to VOC spikes (in words) [1] | binding affinity to variant spikes relative to WT spike [2]
ACE2 | within nanomolar range | –
heparin [HEP15, reference compound] | – | comparable binding affinity to WT spike
heparin [reference compound] | an increase in affinity between HEP and Omicron spike over Delta and other VOC spikes | –

Reference: patent US20250237650A1 (priority 2021, published 2025)
